In patent US4435391A, “Dibenzoxazepine derivative, and pharmaceutical composition comprising the same” (Chugai Seiyaku Kabushiki Kaisha, priority 1980, dated 1984):
Read-outs that look alike come from different tables or passages of the source.

Key:
[1] = tested on: triglyuride (TG) level of plasma; test: Plasma triglyceride (TG) in Triton-injected mice (Experiment 2); type: in vivo, mice of ddY strain; settings: Table 2, 150 mg/kg immediately and 8 hours after Triton WR-1399 500 mg/kg i.v., blood drawn 24 h after Triton; for inhibition in vivo: Mus musculus, iv, read-out: Percent Reduction TG (x ± S.E.)
Method: (§1) The mice of ddY strain weighing between 25 and 30 g were fasted overnight and then Triton WR-1399(500 mg/kg) (Ruger Chemicals Co.) was intravenously injected into the mice. Immediately and 8 hours after the injection, each mouse was administered 150 mg/kg of a test compound of this invention as suspended in 1% aqueous methylcellulose.
(§2) 24 Hours after the injection of Triton, the blood was drawn from the heart. The cholesterol (TC) and triglyuride (TG) levels of plasma were determined with RaBASuper (Chugai Seiyaku K.K., Japan).
(§3) As a positive control, chlofibrate were used.

[2] = tested on: lipid peroxide level (TBA) of blood; test: Lipid peroxide (TBA) level of blood in alloxan-treated mice (Experiment 1); type: in vivo, male mice of ddY strain; settings: Table 1, 300 mg/kg orally, 22 h after alloxan 75 mg/kg i.v., blood drawn 48 h after alloxan, vs untreated mice; for inhibition in vivo at 300 mg/kg: Mus musculus, po, read-out: Percent Reduction TBA (x ± S.E.)
Method: (§4) Male mice of ddY strain weighing between 25 and 30 g were divided into groups of 10 members each and administered intravenously 75 mg/kg of alloxan. Twenty-two hours later, each mouse was administered orally 300 mg/kg of a test compound of this invention as suspended in 1% gum arabic. […] The lipid peroxide level (TBA) of blood was determined with Lipoperoxide-Test Wako (Wako Pure Chemical Industries, Ltd., Japan). The level of blood sugar (BG) was determined with New Blood Sugar Test (Berlinger Mannheim AG., West Germany). […] As a positive control, tocopherol was used.

[3] = tested on: platelets (platelet rich plasma); test: Inhibition of platelet aggregation in platelet rich plasma (Experiment 3); type: cell-based, SD strain rats; settings: for inhibition at 100 µM: Rattus norvegicus, Platelet
Method: Platelet rich plasma samples were prepared from the blood of SD strain rats, and to 0.5 ml of the samples, test compounds in the form of a solution in dimethyl sulfoxide (DMSO) were added in such an amount that the concentration of the compounds in the mixture was 1×10^-4 M. The assay media containing aspirin were used as a control. After incubation for one minute, arachidonic acid, collagen and adenosine diphosphate (ADP) were added to the mixture in concentrations of 1×10^-4 M, 1.5×10^-3 M and 1×10^-6 M, respectively, to aggregate the platelets. The aggregation level was determined with an aggregometer. CORNING-EEL MODEL 16P (Manufactured by Evans Electro Selenium Ltd.) and the percent inhibition of platelets was calculated from the following equation: [formula]

[4] = tested on: level of blood sugar (BG); test: Blood sugar (BG) level in alloxan-treated mice (Experiment 1); type: in vivo, male mice of ddY strain; settings: Table 1, 300 mg/kg orally, 22 h after alloxan 75 mg/kg i.v., blood drawn 48 h after alloxan, vs untreated mice
Method: as §4

[5] = tested on: cholesterol (TC) level of plasma; test: Plasma cholesterol (TC) in Triton-injected mice (Experiment 2); type: in vivo, mice of ddY strain; settings: Table 2, 150 mg/kg immediately and 8 hours after Triton WR-1399 500 mg/kg i.v., blood drawn 24 h after Triton; for inhibition in vivo: Mus musculus, iv, read-out: Percent Reduction TC (x ± S.E.)
Method: as §1, §2, §3

[6] = Table 3 (own numbering), compound 1×10^-4 M, aggregation by ADP 1×10^-6 M, read-out: Percent Inhibition of Aggregation, ADP
[7] = Table 3 (own numbering), compound 1×10^-4 M, aggregation by arachidonic acid 1×10^-4 M, read-out: Percent Inhibition of Aggregation, Arachidonic acid
[8] = Table 3 (own numbering), compound 1×10^-4 M, aggregation by collagen 1.5×10^-3 M, read-out: Percent Inhibition of Aggregation, Collagen
[9] = Table 3 (own numbering), compound 1×10^-4 M, aggregation by ADP 1×10^-6 M
[10] = Table 3 (own numbering), compound 1×10^-4 M, aggregation by arachidonic acid 1×10^-4 M
[11] = Table 3 (own numbering), compound 1×10^-4 M, aggregation by collagen 1.5×10^-3 M

For “11-methyl-3-methoxydibenz[b,f][1,4]oxazepine-8-carboxylic acid [Compound 7 (Table 1)]”, the “Percent Reduction TG (x ± S.E.)” value [1] was 17.8% and the “Percent Reduction TBA (x ± S.E.)” value [2] was 61.1%.
CCOC(=O)c1ccc2c(c1)N=C(C)c1ccc(C)cc1O2 [Compound 3 (Table 3)] showed an inhibition at 100 µM [3, 6] of 50%, an inhibition at 100 µM [3, 7] of 55% and an inhibition at 100 µM [3, 8] of 43%.
CCOC(=O)c1ccc2c(c1)N=Cc1ccc(C)cc1O2 [Compound 3] was tested, and the inhibition in vivo [1] was 18.7%, the “Percent Reduction BG (x ± S.E.)” value [4] was 16.5% and the inhibition in vivo at 300 mg/kg [2] was 23%. For the same compound, the inhibition in vivo [5] was 17.8%.
Compound CCOC(=O)c1ccc2c(c1)N=C(CC)c1ccc(C)cc1O2 [Compound 4 (Table 1)] has an inhibition at 100 µM [3, 6] of 50%, an inhibition at 100 µM [3, 7] of 60% and an inhibition at 100 µM [3, 8] of 47%.
CCOC(=O)c1ccc2c(c1)N=C(C)c1cccc(C)c1O2 [Compound 4 (Table 3)] gave an inhibition at 100 µM [3, 6] of 51%, an inhibition at 100 µM [3, 7] of 60% and an inhibition at 100 µM [3, 8] of 48%.
CCOC(=O)c1ccc2c(c1)N=C(C)c1cccc(OC)c1O2 [Compound 5 (Table 3)] was tested, and the inhibition at 100 µM [3, 6] was 35%, the inhibition at 100 µM [3, 7] was 45% and the inhibition at 100 µM [3, 8] was 30%.
CCOC(=O)c1ccc2c(c1)N=C(CC)c1ccc(OC)cc1O2 [Compound 6] gave an inhibition in vivo [1] of 19.6%, an inhibition in vivo at 300 mg/kg [2] of 54% and an inhibition in vivo [5] of 19.5%.
For COc1ccc2c(c1)Oc1ccc(C(=O)O)cc1N=C2C [Compound 7], the inhibition in vivo [1] was 18.8%, the “Percent Reduction BG (x ± S.E.)” value [4] was 15.7% and the inhibition in vivo at 300 mg/kg [2] was 64.8%. The inhibition in vivo [5] was 17.3%.
In the case of CC1=Nc2cc(C(=O)O)ccc2Oc2cc(C)ccc21 [Compound 8], the inhibition in vivo [1] is reported as 19.3%, the “Percent Reduction BG (x ± S.E.)” value [4] is reported as 16.3% and the inhibition in vivo at 300 mg/kg [2] is reported as 52%. It also gave an inhibition in vivo [5] of 18.6%.
CCC1=Nc2cc(C(=O)O)ccc2Oc2cc(OC)ccc21 [Compound 9] was tested, and the inhibition in vivo [1] was 18.5%, the “Percent Reduction BG (x ± S.E.)” value [4] was 18.4% and the inhibition in vivo at 300 mg/kg [2] was 67.7%. It also gave an inhibition in vivo [5] of 17.9%.
COC(=O)c1ccc2c(c1)N=Cc1cccc(OC)c1O2 [Compound 10] was tested, and the inhibition in vivo [1] was 24.5%, the inhibition in vivo at 300 mg/kg [2] was 50.3% and the inhibition in vivo [5] was 20.7%. For the same compound, the inhibition at 100 µM [3, 6] was 36%, the inhibition at 100 µM [3, 7] was 38% and the inhibition at 100 µM [3, 8] was 34%.
CCCOC(=O)c1ccc2c(c1)N=Cc1cccc(OC)c1O2 [Compound 11] gave an inhibition in vivo [1] of 21.3%, an inhibition in vivo at 300 mg/kg [2] of 38.6% and an inhibition in vivo [5] of 19.2%. For the same compound, the inhibition at 100 µM [3, 6] was 43%, the inhibition at 100 µM [3, 7] was 42% and the inhibition at 100 µM [3, 8] was 40%.
With CCCCOC(=O)c1ccc2c(c1)N=Cc1cccc(OC)c1O2 [Compound 12] the inhibition in vivo [1] was 19.3%, the inhibition in vivo at 300 mg/kg [2] was 19.7% and the inhibition in vivo [5] was 17.4%. It also gave an inhibition at 100 µM [3, 6] of 35%, an inhibition at 100 µM [3, 7] of 43% and an inhibition at 100 µM [3, 8] of 37%.
In the case of O=C(O)c1ccc2c(c1)N=Cc1cc(Cl)ccc1O2 [Compound 13], the inhibition in vivo [1] is reported as 15.2%, the “Percent Reduction BG (x ± S.E.)” value [4] is reported as 10.4% and the inhibition in vivo at 300 mg/kg [2] is reported as 18.3%. The inhibition in vivo [5] was 14.5%.
For CCOc1cccc2c1Oc1ccc(C(=O)O)cc1N=C2 [Compound 14], the inhibition in vivo [1] was 21.3%, the “Percent Reduction BG (x ± S.E.)” value [4] was 18.7% and the inhibition in vivo at 300 mg/kg [2] was 63.4%. It also gave an inhibition in vivo [5] of 19.5%.
For Cc1ccc2c(c1)C=Nc1cc(C(=O)O)ccc1O2 [Compound 15], the inhibition in vivo [1] was 19.4%, the “Percent Reduction BG (x ± S.E.)” value [4] was 16.5% and the inhibition in vivo at 300 mg/kg [2] was 23.8%. For the same compound, the inhibition in vivo [5] was 17.7%.
In the case of CCOC(=O)c1ccc2c(c1)N=C(CC)c1cc(OC)cc(OC)c1O2 [Compound 16 (Table 1)], the inhibition at 100 µM [3, 6] is reported as 44%, the inhibition at 100 µM [3, 7] is reported as 52% and the inhibition at 100 µM [3, 8] is reported as 47%.
Work on CCOC(=O)c1ccc2c(c1)N=C(CC)c1cc(OC)cc(OC)c1O2 [Compound 16] yielded an inhibition in vivo [1] of 17.8%, an inhibition in vivo at 300 mg/kg [2] of 28.5% and an inhibition in vivo [5] of 16.4%.
Compound CCOC(=O)c1ccc2c(c1)N=C(C=Cc1ccccc1)c1cc(OC)ccc1O2 [Compound 17 (Table 1)] has an inhibition at 100 µM [3, 6] of 46%, an inhibition at 100 µM [3, 7] of 48% and an inhibition at 100 µM [3, 8] of 45%.
Work on CCOC(=O)c1ccc2c(c1)N=C(C=Cc1ccccc1)c1cc(OC)ccc1O2 [Compound 17] yielded an inhibition in vivo [1] of 19.7 ± 4.5%, an inhibition in vivo at 300 mg/kg [2] of 34.4 ± 2.9% and an inhibition in vivo [5] of 17.4 ± 3.5%.
CCOC(=O)c1ccc2c(c1)N=C(c1ccccc1)c1ccc(OC)cc1O2 [Compound 18 (Table 1)] was tested, and the inhibition at 100 µM [3, 6] was 40%, the inhibition at 100 µM [3, 7] was 50% and the inhibition at 100 µM [3, 8] was 43%.
CCOC(=O)c1ccc2c(c1)N=C(c1ccccc1)c1ccc(OC)cc1O2 [Compound 18] gave an inhibition in vivo [1] of 21.3 ± 3.2%, an inhibition in vivo at 300 mg/kg [2] of 41.7 ± 3.2% and an inhibition in vivo [5] of 18.4 ± 2.9%.
CCOC(=O)c1ccc2c(c1)N=C(c1cccc(C)c1)c1ccc(OC)cc1O2 [Compound 19] was tested, and the inhibition in vivo [1] was 19.7%, the inhibition in vivo at 300 mg/kg [2] was 34.9% and the inhibition in vivo [5] was 20.1%. The inhibition at 100 µM [3, 6] was 39%, the inhibition at 100 µM [3, 7] was 45% and the inhibition at 100 µM [3, 8] was 41%.
Work on CCCC1=Nc2cc(C(=O)OCC)ccc2Oc2cc(C)ccc21 [Compound 20] yielded an inhibition in vivo [1] of 17.4%, an inhibition in vivo at 300 mg/kg [2] of 39.6% and an inhibition in vivo [5] of 16.5%. The inhibition at 100 µM [3, 6] was 47%, the inhibition at 100 µM [3, 7] was 60% and the inhibition at 100 µM [3, 8] was 50%.
Compound CC(=O)Oc1ccccc1C(=O)O [aspirin, reference compound] has an inhibition at 100 µM ([3]; read-out: Percent Inhibition of Aggregation, ADP) of 17%, an inhibition at 100 µM ([3]; read-out: Percent Inhibition of Aggregation, Arachidonic acid) of 100% and an inhibition at 100 µM ([3]; read-out: Percent Inhibition of Aggregation, Collagen) of 8%.
For CCOC(=O)C(C)(C)Oc1ccc(Cl)cc1 [chlofibrate, reference compound], the inhibition in vivo [1] was 9.5% and the inhibition in vivo [5] was 13.8%.
Work on Cc1c(C)c2c(c(C)c1O)CCC(C)(CCCC(C)CCCC(C)CCCC(C)C)O2 (stereo not drawn) [α-tocopherol, reference compound] yielded an inhibition in vivo at 300 mg/kg [2] of 51.7%.
For “ethyl 4-methoxydibenz[b,f][1,4]oxazepine-8-carboxylate [Compound 6 (Table 3)]”, the “Percent Reduction TG (x ± S.E.)” value ([1]; listed as 1) was 20.8%, the “Percent Reduction TG (x ± S.E.)” value ([1]; listed as 2) was 23.5% and the “Percent Reduction BG (x ± S.E.)” value ([4]; listed as 1) was 15.5%. For the same compound, the “Percent Reduction BG (x ± S.E.)” value ([4]; listed as 2) was 22.4%, the “Percent Reduction TBA (x ± S.E.)” value ([2]; listed as 1) was 12.3% and the “Percent Reduction TBA (x ± S.E.)” value ([2]; listed as 2) was 25.5%. The “Percent Reduction TC (x ± S.E.)” value ([5]; listed as 1) was 19.3%, the “Percent Reduction TC (x ± S.E.)” value ([5]; listed as 2) was 21.4% and the “Percent Inhibition of Aggregation, ADP” value [3, 9] was 20%. The “Percent Inhibition of Aggregation, Arachidonic acid” value [3, 10] was 40% and the “Percent Inhibition of Aggregation, Collagen” value [3, 11] was 25%.
For “ethyl 11-methyl-3-methoxydibenz[b,f][1,4]oxazepine-8-carboxylate [Compound 5 (Table 1)]”, the “Percent Reduction TG (x ± S.E.)” value [1] was 18.7%, the “Percent Reduction TBA (x ± S.E.)” value [2] was 35.2% and the “Percent Reduction TC (x ± S.E.)” value [5] was 18.4%. The “Percent Inhibition of Aggregation, ADP” value [3, 9] was 45%, the “Percent Inhibition of Aggregation, Arachidonic acid” value [3, 10] was 63% and the “Percent Inhibition of Aggregation, Collagen” value [3, 11] was 50%.
